# Publication PMC12147183, “Lacritin cleavage-potentiated targeting of iron - respiratory reciprocity promotes bacterial death” (The Journal of Biological Chemistry, 2025)
# Entries after “also recorded” stand apart in the source; their conditions may differ. Peptide text beside a SMILES is read from it. * marks the point of attachment. FITC = O=C1OC2(c3ccc(O)cc3Oc3cc(O)ccc32)c2ccc(NC(=S)*)cc21; Ahx = NCCCCCC(=O)O
# How the values were obtained:
# [1] = system: P. aeruginosa PA14; experiment: Imaging flow cytometry of peptide entry; type: cell-based, Pseudomonas aeruginosa; conditions: 100 or 10 μM, PA14 10^6 cfu/ml, 1 h at 35 °C, trypsin EDTA to remove surface peptide, no ethanol, n = 3
# Protocol: 0.5 ml of 10^6 cfu/ml PA14 cells in 1 mM Na2HPO4, 0.18 mM KH2PO4, 0.27 mM KCl, and 13.7 mM NaCl (pH 7.2) were incubated for 1 h at 35 °C with 10 or 100 μM FITC-N-104 (without, or as a positive control with 70% ethanol) or with the negative control FITC-C-95. Cells were subsequently washed in the same buffer, pelleted, treated with 100 μl of 0.25% trypsin EDTA (Gibco, 25200-056) for 5 min at 35 °C to remove surface-attached peptide, further washed and pelleted, resuspended in 100 μl of the same buffer for fixation with an equal volume of 8% formaldehyde (18,814, Polysciences Inc) and then imaged using an Amnis Imagestream X Mark II imaging flow cytometer. 500 to 1000 counts were analyzed per replicate. To ensure the exclusion of debris and out-of-focus cells, Gradient-RMS (average slope spanning three pixels in an image; 0–100) versus Area (number of pixels in an image reported in square microns; 1–200) of channel one was plotted for each experiment with more than 85% of the data falling within the cells-in-focus gate. The fluorescence intensity values of FITC-positive cells (Intensity-MC, channel 2) were analyzed using the IDEAS version 6.2 program (Amnis, Seattle WA) and plotted as histograms with a bin number of 100. FITC-positive cells were selected based on histograms generated from the positive control sample.
# [2] = for solubility in common solvents: water, DMSO, methanol, isopropanol, acetonitrile
# From the text: Guided by TMHMM v 2 and DeepTMHMM 1.0.24, we synthesized peptides corresponding to PotH’s predicted outer loops 2 ([…]) and outer loop 3 ([…]). Fifty-three amino acid PotH's OL1 was not synthesized with predicted poor solubility. We also synthesized peptides corresponding to FeoB's predicted outer loop 1 ([…]), outer loop 2 ([…]), outer loop 3 ([…]), and outer loop 5 (ATFAA). […] For these, all amino and carboxy termini were acetylated and amidated, respectively (Supporting Information Reagents Table). All synthesized peptides were aliquoted and stored lyophilized at −80 °C in a dry environment.
# [3] = system: ^14C-spermidine uptake by PA14; type: cell-based, Pseudomonas aeruginosa; conditions: 25 μM peptide, n = 6
# Protocol: 100 μl aliquots (0.8 × 10^8 cfu) of PA14 cell cultures in 1 mM Na2HPO4, 0.18 mM KH2PO4, 0.27 mM KCl, 13.7 mM NaCl without or with 1, 10, 25, 50 or 100 μM N-104 (or N-80/C-25 or C-95) for 45 min at 35 °C were incubated with 1 μl of 10 mM [1,4-^14C]putrescine (0.1 mCi/ml; ARC-0245–250, American Radiolabeled Chemicals) or [1,4-^14C]spermidine (0.1 mCi/ml; ARC-3138–50, American Radiolabeled Chemicals) for 15 min at 35 °C. Cell pellets were washed four times with 100 μl of 10 mM Na2HPO4, 1.8 mM KH2PO4, 2.7 mM KCl, 137 mM NaCl (pH 7.2) and then transferred to 4 ml of scintillation fluid (1200.437, PerkinElmer OptiPhase HiSafe 3) for analysis in a Beckman Coulter LS6500. Also assessed was radioactivity from the last wash. Single-molecule transportation per cell was estimated using standard curves for each radiolabeled polyamine.
# [4] = system: P. aeruginosa PA14; experiment: SYTOX Orange PA14 membrane disruption assay; conditions: 25 μM peptide, PA14 10^7 cfu/ml, 1 h at 35 °C, 5 μM SYTOX Orange; positive control 70% ethanol
# [5] = system: Fe^2+ uptake by PA14; type: cell-based, Pseudomonas aeruginosa; conditions: 25 μM peptide, n = 3
# Protocol: Iron depletion was induced in PA14 cells (5 × 10^9 cfu in 10 ml 10 mM Na2HPO4, 1.8 mM KH2PO4, 2.7 mM KCl, 137 mM NaCl (pH 7.2) by treatment with the chelator 1 mM 2,2′-bipyridyl at room temperature for 1 h. After washing twice with 0.9% NaCl, cells were suspended in 1 ml of 1 mM Na2HPO4, 0.18 mM KH2PO4, 0.27 mM KCl, 13.7 mM NaCl for treatment without or with 1, 10, 25, 50 or 100 μM of N-104 (or negative control N-80/C-25 or C-95) for 45 min at 35 °C, incubated at the same temperature for 15 min with 100 μM FeSO4 and 13 mM ascorbic acid, washed twice with 1 mM Na2HPO4, 0.18 mM KH2PO4, 0.27 mM KCl, and 13.7 mM NaCl, and pelleted at 12,000g. The ferrozine assay ([54]) was subsequently employed. Briefly, cells in pellets were lysed with 20 μl of 50 mM NaOH, partially neutralized with 20 μl of 10 mM HCl, subjected to iron release with 20 μl of acidified 0.29 M KMnO4 for 30 min at 80 °C, cooled to room temperature, incubated with 7 μl of 30 mM ferrozine, 1.1 μl of 180 mM neocuproine, 15 μl of 5 M ammonium acetate and 15 μl of 1 M ascorbic acid for 30 min at room temperature and then centrifuged at 21,000g for 10 min. Cellular iron uptake could then be assessed from the supernatant OD565. Single-molecule transport per cell was estimated using a standard curve.
# [6] = system: P. aeruginosa PA14; experiment: PA14 viability (Alamar Blue, CFU) with exogenous polyamines; type: cell-based, Pseudomonas aeruginosa; conditions: Alamar Blue and CFU; for protection of PA14 against 5 μM N-104 killing: 5 to 50 μM exogenous polyamine, n = 3
# [7] = system: wild-type E. coli K-12; experiment: Alamar Blue viability assay of wild-type E. coli K-12; type: cell-based, Escherichia coli; conditions: 100 μM, wild-type E. coli K-12 10^6 cfu/ml, 37 °C, hourly, n = 3
# [8] = system: P. aeruginosa PA14; type: cell-based, Pseudomonas aeruginosa
# Protocol: Janelia Fluor 549-N-104 and -C-95 (each 25 μg) in 20 μl of M9 minimal salts were incubated with ∼3.75 × 10^9 cfu of pelleted PA14 cells for 1 h at 35 °C, washed four times with filtered 10 mM Na2HPO4, 1.8 mM KH2PO4, 2.7 mM KCl, 137 mM NaCl (pH 7.2), and then treated with 5 μM SYTOX Green to assess membrane integrity. Stained cells (1 μl) were immobilized on coverslip supported 1.5% agarose pads for imaging on a custom-built inverted fluorescence microscope, using 1 W/cm^2 of 561-nm laser light (Genesis MX561 MTM, Coherent) to excite Janelia Fluor 549 Maleimide and 4 mW/cm^2 of 488-nm laser light (Coherent) to excite SYTOX Green. Emitted light collected using an oil immersion objective (PLSAPO, 60×, 1.4 NA) was passed through a filter set (zt440/488/561rpc, Chroma Technology) to block excitation light with separation of Janelia Fluor 549 Maleimide and SYTOX Green emission using a diochroic beam splitter (T5g0lpxr-uf3, Chroma Technology) as collected on separate sCMOS cameras (ORCA-Flash 4.0 V2, Hamamatsu Photonics). Brightfield images were collected to obtain the total number of cells in each field of view.
# [9] = system: P. aeruginosa PA14; conditions: 0-25 μM FITC-N-104 or 2-25 μM Janelia Fluor 549-tagged N-104, PA14 10^6 cfu/ml, 8 h
# Protocol: After overnight incubation at 37 °C, plates were analyzed on a ChemiDoc XRS (Bio-Rad).
molecule,measurement,setting,value
CC(C)C[C@H](NC(=O)[C@H](CCCCN)NC(=O)[C@H](CCC(N)=O)NC(=O)[C@H](C)NC(=O)CCCCCNC(=S)Nc1ccc2c(c1)C(=O)OC21c2ccc(O)cc2Oc2cc(O)ccc21)C(=O)N[C@@H](CC(C)C)C(=O)N[C@@H](CCCCN)C(=O)N[C@@H](CCCCN)C(=O)N[C@@H](Cc1ccccc1)C(=O)N[C@@H](CO)C(=O)N[C@@H](CC(C)C)C(=O)N[C@@H](CC(C)C)C(=O)N[C@@H](CCCCN)C(=O)N1CCC[C@H]1C(=O)N[C@@H](Cc1c[nH]c2ccccc12)C(=O)N[C@@H](C)C(=O)O [FITC-N-104] ({FITC-Ahx}-AQKLLKKFSLLKPWA-OH),intracellular FITC fluorescence,[1],"substantial intracellular; also recorded: In contrast to FITC-C-95, substantial intracellular FITC-N-104 fluorescence was apparent at either 100 or 10 µM concentrations"
CC[C@H](C)[C@H](NC(C)=O)C(=O)N[C@@H](CC(N)=O)C(=O)N[C@H](C(=O)NCC(=O)NCC(=O)N[C@@H](C)C(=O)N[C@@H](CC(C)C)C(=O)N[C@@H](CCC(N)=O)C(=O)N1CCC[C@H]1C(N)=O)[C@@H](C)CC [FeoB OL1 peptide] (Ac-INIGGALQP-NH2),solvents in which solubility was identified,[2],formic or acetic acid
same,solubility in common solvents,[2],"not water, DMSO, methanol, isopropanol or acetonitrile soluble"
CC(=O)NCC(=O)N[C@@H](C)C(=O)N[C@@H](Cc1ccccc1)C(=O)N[C@@H](Cc1ccccc1)C(=O)NCC(=O)N[C@@H](CCC(N)=O)C(=O)NCC(=O)NCC(=O)N[C@@H](C)C(N)=O [FeoB OL3 peptide] (Ac-GAFFGQGGA-NH2),solvents in which solubility was identified,[2],ammonia water and acetic acid
same,solubility in common solvents,[2],"not water, DMSO, methanol, isopropanol or acetonitrile soluble"
"CSCC[C@H](NC(=O)CNC(=O)[C@H](CCCCN)NC(=O)CNC(=O)[C@H](C)NC(=O)[C@H](CCCCN)NC(=O)[C@H](C)NC(C)=O)C(=O)N[C@@H](Cc1c[nH]cn1)C(=O)NCC(=O)NCC(=O)N[C@H](C(=O)N1CCC[C@H]1C(=O)NCC(=O)NCC(N)=O)C(C)C [N-80/C-25, reference compound] (Ac-AKAGKGMHGGVPGG-NH2)",effect on ^14C-spermidine uptake,[3],also inhibitory
same,membrane disruption (SYTOX Orange uptake),[4],not membrane disruptive
same,effect on exogenous Fe^2+ uptake,[5],partially inhibitory
NCCCCN [Putrescine],protection of PA14 against 5 μM N-104 killing,[6],did not offer the same benefit
same,toxicity to PA14,[6]; 100-2000 µM polyamine,nor was toxic at high concentrations
CC1(C)S[C@@H]2[C@H](NC(=O)[C@H](N)c3ccccc3)C(=O)N2[C@H]1C(=O)O [ampicillin],bacterial metabolic activity (Alamar Blue),[7],inhibitory
NCCCCNCCCN [spermidine],protection of PA14 against 5 μM N-104 killing,[6],increasingly protected
same,concentration at which toxic to PA14,[6]; 100-2000 µM polyamine,exceeding 100 μM
JaneliaFluor-CAQKLLKKFSLLKPWA [JanFl-N-104],cellular staining pattern,[8],peripheral internal ring
same,effect of tagging on N-104 activity in CFU assay,[9],partially affected
"JaneliaFluor-CEDASSDSTGADPAQEAGTSKPNEE [JanFl-C-95, Cys(N)-C-95 conjugated to Janelia Fluor 549 maleimide, reference compound]",cellular staining pattern,[8],lacked staining
